± gives the expanded uncertainty stated by the source.
Assay: xn = mol fraction of the nth substance listed
Conditions: Gas, isochoric method

F/C=C(\F)C(F)(F)F [(Z)-1,2,3,3,3-pentafluoro-1-propene] + CC(C)C
Conditions	specific volume [m3/kg]
303.15 K, 207 kPa, x2 = 0.504	0.1216 ± 0.0004
308.15 K, 210.7 kPa, x2 = 0.504	0.1216 ± 0.0004
308.15 K, 303.6 kPa, x2 = 0.797	0.1074 ± 0.0004
308.15 K, 309.8 kPa, x2 = 0.345	0.0717 ± 0.0003
308.15 K, 316 kPa, x2 = 0.175	0.0632 ± 0.0003
308.15 K, 394.7 kPa, x2 = 0.916	0.0901 ± 0.0003
308.15 K, 410.6 kPa, x2 = 0.477	0.0585 ± 0.0004
313.15 K, 214.4 kPa, x2 = 0.504	0.1216 ± 0.0004
313.15 K, 309.3 kPa, x2 = 0.797	0.1074 ± 0.0004
313.15 K, 315.5 kPa, x2 = 0.345	0.0717 ± 0.0003
313.15 K, 321.9 kPa, x2 = 0.175	0.0632 ± 0.0003
313.15 K, 402.8 kPa, x2 = 0.916	0.0901 ± 0.0003
313.15 K, 418.8 kPa, x2 = 0.477	0.0585 ± 0.0004
318.15 K, 218 kPa, x2 = 0.504	0.1217 ± 0.0004
318.15 K, 315 kPa, x2 = 0.797	0.1074 ± 0.0004
318.15 K, 321.3 kPa, x2 = 0.345	0.0717 ± 0.0003
318.15 K, 327.8 kPa, x2 = 0.175	0.0633 ± 0.0003
318.15 K, 410.7 kPa, x2 = 0.916	0.0901 ± 0.0003
318.15 K, 426.9 kPa, x2 = 0.477	0.0585 ± 0.0004
323.15 K, 221.7 kPa, x2 = 0.504	0.1217 ± 0.0004
323.15 K, 320.6 kPa, x2 = 0.797	0.1074 ± 0.0004
323.15 K, 327 kPa, x2 = 0.345	0.0717 ± 0.0003
323.15 K, 333.7 kPa, x2 = 0.175	0.0633 ± 0.0003
323.15 K, 418.5 kPa, x2 = 0.916	0.0901 ± 0.0003
323.15 K, 434.9 kPa, x2 = 0.477	0.0585 ± 0.0004
328.15 K, 225.3 kPa, x2 = 0.504	0.1217 ± 0.0004
328.15 K, 326.2 kPa, x2 = 0.797	0.1075 ± 0.0004
328.15 K, 332.9 kPa, x2 = 0.345	0.0718 ± 0.0003
328.15 K, 339.5 kPa, x2 = 0.175	0.0633 ± 0.0003
328.15 K, 426.4 kPa, x2 = 0.916	0.0902 ± 0.0003
328.15 K, 442.8 kPa, x2 = 0.477	0.0586 ± 0.0003
333.15 K, 229 kPa, x2 = 0.504	0.1217 ± 0.0004
333.15 K, 331.8 kPa, x2 = 0.797	0.1075 ± 0.0003
333.15 K, 338.6 kPa, x2 = 0.345	0.0718 ± 0.0003
333.15 K, 346.4 kPa, x2 = 0.175	0.0633 ± 0.0003
333.15 K, 434 kPa, x2 = 0.916	0.0902 ± 0.0003
333.15 K, 450.8 kPa, x2 = 0.477	0.0586 ± 0.0003
338.15 K, 232.6 kPa, x2 = 0.504	0.1218 ± 0.0003
338.15 K, 337.4 kPa, x2 = 0.797	0.1075 ± 0.0003
338.15 K, 344.2 kPa, x2 = 0.345	0.0718 ± 0.0003
338.15 K, 351.2 kPa, x2 = 0.175	0.0633 ± 0.0003
338.15 K, 441.7 kPa, x2 = 0.916	0.0902 ± 0.0003
338.15 K, 458.7 kPa, x2 = 0.477	0.0586 ± 0.0003
343.15 K, 236.3 kPa, x2 = 0.504	0.1218 ± 0.0003
343.15 K, 342.9 kPa, x2 = 0.797	0.1075 ± 0.0003
343.15 K, 349.8 kPa, x2 = 0.345	0.0718 ± 0.0003
343.15 K, 357 kPa, x2 = 0.175	0.0633 ± 0.0003
343.15 K, 449.4 kPa, x2 = 0.916	0.0902 ± 0.0003
343.15 K, 466.6 kPa, x2 = 0.477	0.0586 ± 0.0003
348.15 K, 239.9 kPa, x2 = 0.504	0.1218 ± 0.0003
348.15 K, 348.5 kPa, x2 = 0.797	0.1076 ± 0.0003
348.15 K, 355.4 kPa, x2 = 0.345	0.0718 ± 0.0003
348.15 K, 362.8 kPa, x2 = 0.175	0.0633 ± 0.0002
348.15 K, 457 kPa, x2 = 0.916	0.0902 ± 0.0003
348.15 K, 474.5 kPa, x2 = 0.477	0.0586 ± 0.0003
353.15 K, 243.6 kPa, x2 = 0.504	0.1218 ± 0.0003
353.15 K, 354.1 kPa, x2 = 0.797	0.1076 ± 0.0003
353.15 K, 361 kPa, x2 = 0.345	0.0718 ± 0.0003
353.15 K, 368.6 kPa, x2 = 0.175	0.0634 ± 0.0002
353.15 K, 464.6 kPa, x2 = 0.916	0.0903 ± 0.0003
353.15 K, 482.3 kPa, x2 = 0.477	0.0586 ± 0.0003
358.15 K, 247.3 kPa, x2 = 0.504	0.1219 ± 0.0003
358.15 K, 359.6 kPa, x2 = 0.797	0.1076 ± 0.0003
358.15 K, 366.6 kPa, x2 = 0.345	0.0719 ± 0.0003
358.15 K, 374.3 kPa, x2 = 0.175	0.0634 ± 0.0002
358.15 K, 472.2 kPa, x2 = 0.916	0.0903 ± 0.0003
358.15 K, 490.2 kPa, x2 = 0.477	0.0586 ± 0.0003
363.15 K, 251 kPa, x2 = 0.504	0.1219 ± 0.0003
363.15 K, 365.1 kPa, x2 = 0.797	0.1076 ± 0.0003
363.15 K, 372.2 kPa, x2 = 0.345	0.0719 ± 0.0003
363.15 K, 380.1 kPa, x2 = 0.175	0.0634 ± 0.0002
363.15 K, 479.8 kPa, x2 = 0.916	0.0903 ± 0.0003
363.15 K, 497.9 kPa, x2 = 0.477	0.0586 ± 0.0003
368.15 K, 254.6 kPa, x2 = 0.504	0.1219 ± 0.0003
368.15 K, 370.4 kPa, x2 = 0.797	0.1077 ± 0.0003
368.15 K, 377.8 kPa, x2 = 0.345	0.0719 ± 0.0003
368.15 K, 385.9 kPa, x2 = 0.175	0.0634 ± 0.0002
368.15 K, 487.3 kPa, x2 = 0.916	0.0903 ± 0.0003
368.15 K, 505.7 kPa, x2 = 0.477	0.0587 ± 0.0003
373.15 K, 258.3 kPa, x2 = 0.504	0.122 ± 0.0003
373.15 K, 375.9 kPa, x2 = 0.797	0.1077 ± 0.0003
373.15 K, 383.4 kPa, x2 = 0.345	0.0719 ± 0.0003
373.15 K, 391.6 kPa, x2 = 0.175	0.0634 ± 0.0002
373.15 K, 494.9 kPa, x2 = 0.916	0.0903 ± 0.0003
373.15 K, 513.5 kPa, x2 = 0.477	0.0587 ± 0.0003
378.15 K, 262 kPa, x2 = 0.504	0.122 ± 0.0004
378.15 K, 381.6 kPa, x2 = 0.797	0.1077 ± 0.0003
378.15 K, 389 kPa, x2 = 0.345	0.0719 ± 0.0003
378.15 K, 397.3 kPa, x2 = 0.175	0.0634 ± 0.0002
378.15 K, 502.4 kPa, x2 = 0.916	0.0904 ± 0.0003
378.15 K, 521.3 kPa, x2 = 0.477	0.0587 ± 0.0003
383.15 K, 265.6 kPa, x2 = 0.504	0.122 ± 0.0004
383.15 K, 387 kPa, x2 = 0.797	0.1077 ± 0.0003
383.15 K, 394.6 kPa, x2 = 0.345	0.0719 ± 0.0003
383.15 K, 403.1 kPa, x2 = 0.175	0.0634 ± 0.0002
383.15 K, 509.9 kPa, x2 = 0.916	0.0904 ± 0.0003
383.15 K, 529 kPa, x2 = 0.477	0.0587 ± 0.0003

Reference: the NIST ThermoML archive (doi:10.1021/acs.jced.8b00921)
